Article PMC6899459 (Chemmedchem, 2019)
pEC50: −log10 of the molar value. Square brackets hold non-standard residues; d marks the D form. Peptide text beside a SMILES is read from it. Trp(3S-Ph) = N[C@H](C(=O)O)[C@@H](c1ccccc1)c1c[nH]c2ccccc12; Trp(βR-Ph) = N[C@H](C(=O)O)[C@H](c1ccccc1)c1c[nH]c2ccccc12; d2Nal = N[C@H](Cc1ccc2ccccc2c1)C(=O)O; dBta = N[C@H](Cc1csc2ccccc12)C(=O)O; Inp = O=C(O)C1CCNCC1

Target: ghrelin receptor (Homo sapiens, UniProt Q92847)
Test: IP-One assay
Type: cell-based
Conditions: for potency loss relative to ghrelin: IP-One assay, COS7 cells with ghrelin receptor; for pEC50 / E max [Δ%]: SEM; for E max [Δ%]: difference between constitutive activity and maximal effect, mean±SEM of >=2 independent experiments
[1] = normalized to ghrelin (5) efficacy (ghrelin analogues and multiple modified agonists)
[2] = normalized to KbFwLL-NH2 (15) (inverse agonists and 13)

ghrelin receptor, sequence (Q92847 whole entry): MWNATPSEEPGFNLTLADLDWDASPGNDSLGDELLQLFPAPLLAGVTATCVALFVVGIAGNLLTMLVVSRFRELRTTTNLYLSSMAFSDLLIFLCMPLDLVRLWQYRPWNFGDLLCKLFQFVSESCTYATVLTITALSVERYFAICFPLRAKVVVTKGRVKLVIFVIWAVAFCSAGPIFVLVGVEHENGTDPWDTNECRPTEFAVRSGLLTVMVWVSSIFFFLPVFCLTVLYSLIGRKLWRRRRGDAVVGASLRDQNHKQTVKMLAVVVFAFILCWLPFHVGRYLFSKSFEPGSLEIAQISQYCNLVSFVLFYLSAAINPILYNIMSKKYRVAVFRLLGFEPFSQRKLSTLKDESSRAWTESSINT

| Structure (SMILES) | potency loss relative to ghrelin | pEC50 | E max [Δ%] [1] | E max [Δ%] [2] |
| --- | --- | --- | --- | --- |
| CCCCCCCC(=O)OC[C@H](NC(=O)[C@H](CO)NC(=O)CN)C(=O)N[C@H](C(=O)N[C@@H](CC(C)C)C(=O)N[C@@H](CO)C(=O)N1CCC[C@H]1C(=O)N[C@@H](CCC(=O)O)C(=O)N[C@@H](Cc1c[nH]cn1)C(=O)N[C@@H](CCC(N)=O)C(=O)N[C@@H](CCCNC(=N)N)C(=O)N[C@H](C(=O)N[C@@H](CCC(N)=O)C(=O)N[C@@H](CCC(N)=O)C(=O)N[C@@H](CCCNC(=N)N)C(=O)N[C@@H](CCCCN)C(=O)N[C@@H](CCC(=O)O)C(=O)N[C@@H](CO)C(=O)N[C@@H](CCCCN)C(=O)N[C@@H](CCCCN)C(=O)N1CCC[C@H]1C(=O)N1CCC[C@H]1C(=O)N[C@@H](C)C(=O)N[C@@H](CCCCN)C(=O)N[C@@H](CC(C)C)C(=O)N[C@@H](CCC(N)=O)C(=O)N1CCC[C@H]1C(=O)N[C@@H](CCCNC(=N)N)C(=O)O)C(C)C)[C@H](c1ccccc1)c1c[nH]c2ccccc12 [Peptide 6, Wrf^4‐ghrelin] | about 12 fold | 7.49 | 98±2 Δ% |  |
| CCCCCCCC(=O)OC[C@H](NC(=O)[C@H](CO)NC(=O)CN)C(=O)N[C@H](C(=O)N[C@@H](CC(C)C)C(=O)N[C@@H](CO)C(=O)N1CCC[C@H]1C(=O)N[C@@H](CCC(=O)O)C(=O)N[C@@H](Cc1c[nH]cn1)C(=O)N[C@@H](CCC(N)=O)C(=O)N[C@@H](CCCNC(=N)N)C(=O)N[C@H](C(=O)N[C@@H](CCC(N)=O)C(=O)N[C@@H](CCC(N)=O)C(=O)N[C@@H](CCCNC(=N)N)C(=O)N[C@@H](CCCCN)C(=O)N[C@@H](CCC(=O)O)C(=O)N[C@@H](CO)C(=O)N[C@@H](CCCCN)C(=O)N[C@@H](CCCCN)C(=O)N1CCC[C@H]1C(=O)N1CCC[C@H]1C(=O)N[C@@H](C)C(=O)N[C@@H](CCCCN)C(=O)N[C@@H](CC(C)C)C(=O)N[C@@H](CCC(N)=O)C(=O)N1CCC[C@H]1C(=O)N[C@@H](CCCNC(=N)N)C(=O)O)C(C)C)[C@@H](c1ccccc1)c1c[nH]c2ccccc12 [Peptide 7, Wsf^4‐ghrelin] | about 12 fold | 7.47 | 96±2 Δ% |  |
| CC(C)C[C@H](NC(=O)[C@H](CC(C)C)NC(=O)[C@@H](Cc1c[nH]c2ccccc12)NC(=O)[C@H](Cc1ccccc1)NC(=O)[C@@H](Cc1c[nH]c2ccccc12)NC(=O)[C@@H](N)CCCCN)C(N)=O [Peptide 8, KwFwLL‐NH2, reference compound] |  | 6.74 |  | 66±3 Δ% |
| CC(C)C[C@H](NC(=O)[C@H](CC(C)C)NC(=O)[C@@H](Cc1c[nH]c2ccccc12)NC(=O)[C@H](Cc1ccccc1)NC(=O)[C@@H](NC(=O)[C@@H](N)CCCCN)[C@H](c1ccccc1)c1c[nH]c2ccccc12)C(N)=O [Peptide 9, K‐Wrf‐FwLL‐NH2] |  |  |  | 72±2 Δ% |
| CC(C)C[C@H](NC(=O)[C@H](CC(C)C)NC(=O)[C@@H](Cc1c[nH]c2ccccc12)NC(=O)[C@@H](NC(=O)[C@@H](Cc1c[nH]c2ccccc12)NC(=O)[C@@H](N)CCCCN)[C@H](c1ccccc1)c1c[nH]c2ccccc12)C(N)=O [Peptide 11, Kw‐Wrf‐wLL‐NH2] (H-K[dW][Trp(βR-Ph)][dW]LL-NH2; N-terminus assumed) |  | 6.83 |  | 55±4 Δ% |
| CC(C)C[C@H](NC(=O)[C@H](CC(C)C)NC(=O)[C@@H](Cc1c[nH]c2ccccc12)NC(=O)[C@@H](NC(=O)[C@@H](Cc1c[nH]c2ccccc12)NC(=O)[C@@H](N)CCCCN)[C@@H](c1ccccc1)c1c[nH]c2ccccc12)C(N)=O [Peptide 12, Kw‐Wsf‐wLL‐NH2] (H-K[dW][Trp(3S-Ph)][dW]LL-NH2; N-terminus assumed) |  | 6.55 |  | 77±4 Δ% |
| CC(C)C[C@H](NC(=O)[C@H](CC(C)C)NC(=O)[C@@H](NC(=O)[C@H](Cc1ccccc1)NC(=O)[C@@H](Cc1c[nH]c2ccccc12)NC(=O)[C@@H](N)CCCCN)[C@H](c1ccccc1)c1c[nH]c2ccccc12)C(N)=O [Peptide 13, KwF‐Wrf‐LL‐NH2] |  | 6.04 |  | 39±3 Δ% |
| CC(C)C[C@H](NC(=O)[C@H](CC(C)C)NC(=O)[C@@H](Cc1c[nH]c2ccccc12)NC(=O)[C@@H](NC(=O)[C@@H](Cc1csc2ccccc12)NC(=O)[C@@H](N)CCCCN)[C@H](c1ccccc1)c1c[nH]c2ccccc12)C(N)=O [Peptide 16, Kb‐Wrf‐wLL‐NH2] (H-K[dBta][Trp(βR-Ph)][dW]LL-NH2; N-terminus assumed) |  | 6.26 |  | 56±3 Δ% |
| C[C@H](N)C(=O)N[C@H](Cc1c[nH]c2ccccc12)C(=O)N[C@@H](Cc1ccccc1)C(=O)N[C@H](Cc1ccc2ccccc2c1)C(=O)N1CCC(C(N)=O)CC1 [Peptide 18, AwFn‐Isn‐NH2, reference compound] (H-A[dW]F[d2Nal][Inp]-NH2; N-terminus assumed) |  | 7.78 | 110±6 Δ% |  |
| C[C@H](N)C(=O)N[C@H](Cc1c[nH]c2ccccc12)C(=O)N[C@@H](Cc1ccccc1)C(=O)N[C@H](C(=O)N1CCC(C(N)=O)CC1)[C@H](c1ccccc1)c1c[nH]c2ccccc12 [Peptide 20, AwF‐Wrf‐Isn‐NH2] (H-A[dW]F[Trp(βR-Ph)][Inp]-NH2; N-terminus assumed) |  | 7.56 | 105±3 Δ% |  |
| C[C@H](N)C(=O)N[C@H](Cc1c[nH]c2ccccc12)C(=O)N[C@@H](Cc1ccccc1)C(=O)N[C@H](C(=O)N1CCC(C(N)=O)CC1)[C@@H](c1ccccc1)c1c[nH]c2ccccc12 [Peptide 21, AwF‐Wsf‐Isn‐NH2] (H-A[dW]F[Trp(3S-Ph)][Inp]-NH2; N-terminus assumed) |  | 7.08 | 95±2 Δ% |  |
